13 compounds from patent US20230027072A1, “IMPROVED METHODS, KITS, COMPOSITIONS AND DOSING REGIMENS FOR THE USE OF HETEROCYCLIC INHIBITORS OF ERK1 AND ERK2” (Asana Biosciences, LLC, priority 2019, published 2023) can be followed below.

For orientation: Tmax means the time at which the peak concentration occurs. In general, half-life refers to the time in which the quantity being followed falls by half. The low end stands for rapid decline, the high end for slow decline. By Cmax is commonly meant the highest concentration seen after dosing.

Where two headings read alike, the source gives them in different places.

Data set [1] has as its system HT-29 (colorectal carcinoma, B-RafV600E) cells. The data set is described as follows: Cell proliferation (Alamar Blue) assay, HT-29. The conditions noted are these: read-out: Cell Proliferation Assay HT29 IC50. It counts as cell-based, human. The method, then: (§1) Cell Proliferation (Alamar Blue) Assay
(§2) HT-29 (colorectal carcinoma, B-RafV600E), HCT116 (colorectal carcinoma, K Ras G13D), A375 (melanoma, B-RafV600E) and SK-Mel2 (melanoma, NRAS Q61R) cells (obtained from ATCC, USA) were seeded (5000 cells/well) in 96-well tissue culture plate and incubated at 37° C./5% CO2 for 16-24 hours. The cells were then treated with compounds, at concentrations typically from 0.0005 to 10 uM prepared in 3-fold serial dilutions. The plates were then incubated for 72 h at 37° C./5% CO2 in a moist environment. Then Alamar Blue™ reagent (final concentration 1×) was added to each well and incubated for 1-3 h at 37° C./5% CO2. The plates were read on fluorescence reader at 540 nm excitation and 590 nm emission wavelengths. The IC50 values were subsequently determined using a sigmoidal dose-response curve (variable slope) using GraphPad Prism® 5 software. Compounds of the present disclosure caused inhibition of HT-29, HCT116, A375 and SK-Mel2 cell proliferation as determined in these assays.
Background: Resazurin is reduced to fluorescent resorufin, in cell work by metabolically active cells.

For data set [2], the system named is HCT116 (colorectal carcinoma, K Ras G13D) cells. The data set is described as follows: Cell proliferation (Alamar Blue) assay, HCT116. It counts as cell-based, human. As for the experimental part:
as §1, §2

Data set [3] has as its system phosphorylation of RSK1(S380) (the downstream target of ERK1/2). The data set is described as follows: Mechanistic (phospho-RSK1(S380) ELISA) assay in HT-29 cells. To be noted: 2 h treatment, read-out: Mechanistic Cell Assay RSK1 Phos HT29 IC50. It counts as cell-based, human. The method, then:
Mechanistic (Phospho-RSK1(5380) ELISA) Assay
HT-29 cells (colorectal carcinoma, B-RafV600E); obtained from ATCC, USA) were seeded (60,000 cells/well) in a 96-well plate and incubated at 37° C./5% CO2 overnight and then treated with desired compound dilutions for 2 h. Medium was removed and cells were rinsed once with ice-cold 1×PBS, then 0.070 mL ice-cold 1× cell lysis buffer containing 1 mM PMSF was added to each well and the plate was incubated on a shaker for 2 h and 30 min at 4° C. The plate was then centrifuged for 20 min (×4000 rpm) at 4° C. and the supernatant was transferred to a new plate. Cell lysates were diluted with sample diluent at a ratio of 1:1. The ELISA was then carried out following the manufacturer's protocol (PathScan® phospho-RSK1(Ser380) Sandwich ELISA Kit, Cell Signaling Technologies). The plate was read at 450 nm within 30 min after adding STOP solution. The IC50 values were subsequently determined using a sigmoidal dose-response curve (variable slope) in GraphPad Prism® 5 software. Compounds of the present disclosure inhibited phosphorylation of RSK1(5380) (the downstream target of ERK1/2) as determined in this assay.
(ELISA stands for enzyme-linked immunosorbent assay.)

Data set [4] can be described thus: Phase 1 clinical study, pharmacokinetics (Example 39). It counts as in vivo. The conditions noted are these: human; for AUC / Cmax: plasma, oral, Day 15; for AUC: read-out: AUCtau, mean (CV %); for Cmax: read-out: Cmax, mean (CV %). From the text:
This human clinical study is designed to determine the maximum tolerated dose of the compound of Example 349 [S)—N-(2-Amino-1-(3-chloro-5-fluorophenyl)ethyl)-1-(5-methyl-2-((tetrahydro-2H-pyran-4-yl)amino)pyrimidin-4-yl)-1H-imidazole-4-carboxamide mandelic acid salt] and evaluate its safety, tolerability, pharmacokinetics and pharmacodynamics. This study is an open-label, non-randomized uncontrolled, multicenter, dose escalation, and cohort expansion study in subjects with histologically or cytologically confirmed advanced solid tumors for which no standard therapy exists. The compound of Example 349 was formulated as described in Example 35 above for administration to the study subjects.
Daily dosing: This part of the study was conducted using an accelerated titration design in which patients were dosed once daily in cycles of 3 weeks. The accelerated phase of the study included single-patient cohorts and escalation increases of 100% up to 80 mg/day dose cohorts in the absence of DLTs or ≥Grade 2 drug-related toxicity. In the absence of any DLTs or ≥Grade 2 drug-related toxicity, the conventional 3+3 design commenced at 80 mg/day dose level.
Weekly dosing: Once weekly dosing of subject in 3+3 escalating dose cohorts was explored as warranted by the emerging pharmacokinetics and clinical trial experience. Once weekly dose escalation increments were up to 50%, based on the absence of DLTs or ≥Grade 2 drug-related toxicity and the available tablet strengths. Initiation of escalating daily and weekly higher dose levels occurred only following safety data review and agreement by the Safety Review Committee.
Part A included and Part B will include a screening period (up to 21 days) and an estimated treatment period for up to 12 months. […] At the end of treatment, a post-treatment period of 4 weeks will commence that concludes with an end-of-study visit.
The pharmacokinetics of the compound of Example 349 was evaluated in the study subjects with solid tumors following once-daily oral administration at 10-80 mg or QW administration at 80-350 mg. […] With once-daily dosing, the accumulation in Cmax and AUCtau were approximately 2-fold based on the 40 mg data. With once-weekly administration, drug accumulation in plasma was minimal. […] Results of these pharmacokinetic studies are further illustrated in FIGS. 6 and 7, which show the plasma concentration-time profiles for the QD and QW regimens. FIGS. 6A and 6B show the plasma concentration over time for the compound of Example 349 measured on day 1 and day 15 for daily dosing at 10 mg/kg, 20 mg/kg, 40 mg/kg, 60 mg/kg and 80 mg/kg. […] FIGS. 7A and 7B show the plasma concentration over time for the compound of Example 349 measured on day 1 and day 15 for weekly dosing at 80 mg/kg, 120 mg/kg, 180 mg/kg, 250 mg/kg and 350 mg/kg.

[5] abbreviates: 40 mg daily (MTD for QD regimen).
[6] abbreviates: 250 mg weekly (MTD for QW regimen).

In the case of `Cc1cnc(Nc2ccc(F)cc2)cc1-n1cnc(C(=O)NC(CN)c2ccccc2)c1` (single isomer, unassigned) [Example 227, N-(2-amino-1-phenylethyl)-1-(2-((4-fluorophenyl)-amino)-5-methyl-pyridin-4-yl)-1H-imidazole-4-carboxamide], the IC50 in data set [1] (Homo sapiens, HT-29, 72 h) is 100 to 250 nM.

For `Cc1cnc(NC2CCOCC2)nc1-n1cnc(C(=O)NC(c2cccc(Cl)c2)C(C)O)c1` (centres unmarked) [Example 253, N-(1-(3-chlorophenyl)-2-hydroxypropyl)-1-(5-methyl-2-((tetrahydro-2H-pyran-4-yl)amino)-pyrimidin-4-yl)-1H-imidazole-4-carboxamide], the IC50 is > 2500 nM in data set [2] (72 h) and 500 to 2500 nM in data set [3].

“N-(1-(3-chloro- phenyl)-2-hydroxy- ethyl)-1-(2-((3- fluoro-2-methoxy- phenyl)amion)-5- methylpyrimidin-4- yl)-1H-pyrrole-3- carboxamide [Example 143]”: the IC50 in data set [2] (72 h) and in data set [3] was 250 to 500 nM each time.

For the compound `Cc1cnc(Nc2ccc(F)cc2)cc1-n1cnc(C(=O)NC(CN)c2ccccc2)c1` (centres unmarked) [Compound 191, N-(2-amino-1-phenylethyl)-1-(2-((4-fluorophenyl)amino)-5-methylpyridin-4-yl)-1H-imidazole-4-carboxamide], the IC50 in data set [1] (Homo sapiens, HT-29, 72 h) is 250 to 500 nM; in data set [2] (Homo sapiens, HCT-116, 72 h), 500 to 2500 nM.

As to `Cc1cnc(NC2CCOCC2)nc1-n1cnc(C(=O)N[C@H](CN)c2cc(F)cc(Cl)c2)c1` [Example 349], in data set [4] (in vivo), the “AUCtau values, dependence on dose” value is recorded as “dose dependent”; the “Cmax values, dependence on dose” value is on record as “dose dependent”; the “Total CL/F, dependence on dose” value was “independent of dose levels”; the “Vd/F, dependence on dose” value is “independent of dose levels”. In data set [4] (in vivo, po), the Tmax is 1 to 4 h and the half-life is ~25 h. In addition, in data set [4] (setting [5]), the AUC is 492 ng·h/mL and the Cmax turned out to be 61.5 ng/mL. Further, in data set [4] (setting [6]), the AUC was 5500 ng·h/mL and the Cmax amounted to 495 ng/mL.

In the case of `Cc1cnc(N[C@H]2CC[C@H](O)CC2)nc1-n1cnc(C(=O)N[C@H](CO)c2cccc(Cl)c2)c1` [Example 242, N-((S)-1-(3-chlorophenyl)-2-hydroxyethyl)-1-(2-(((1r,4S)-4-hydroxy-cyclohexyl)amino)-5-methyl-pyrimidin-4-yl)-1H-imidazole-4-carboxamide], the IC50 in data set [2] (Homo sapiens, HCT-116, 72 h) lay within 500 to 2500 nM; in data set [3] (Homo sapiens, HT-29, 2 h), 250 to 500 nM.

As to `Cc1cnc(NC2CCOCC2)nc1-n1cnc(C(=O)NC(CN)c2ccc(Cl)s2)c1` (centres unmarked) [Example 274, N-(2-amino-1-(5-chlorothiophen-2-yl)ethyl)-1-(5-methyl-2-((tetrahydro-2H-pyran-4-yl)amino)pyrimidin-4-yl)-1H-imidazole-4-carboxamide], the IC50 in data set [3] (Homo sapiens, HT-29, 2 h) was 100 to 250 nM.

Turning to `Cc1cnc(Nc2ccc(F)cc2Cl)nc1-n1ccc(C(=O)N[C@H](CO)c2cccc(Cl)c2)c1` [Compound 29, (S)-1-(2-((2-Chloro-4-fluorophenyl)amino)-5-methylpyrimidin-4-yl)-N-(1-(3-chlorophenyl)-2-hydroxyethyl)-1H-pyrrole-3-carboxamide], the IC50 in data set [2] (72 h) lay within 500 to 2500 nM.

On to `Cc1cnc(Nc2ccc3occc3c2)nc1-n1ccc(C(=O)NC(CO)c2cccc(Cl)c2)c1` (centres unmarked) [Example 68, 1-(2-(benzofuran-5-ylamino)-5-methylpyrimidin-4-yl)-N-(1-(3-chlorophenyl)-2-hydroxyethyl)-1H-pyrrole-3-carboxamide], for which the IC50 is 100 to 250 nM in data set [1] (Homo sapiens, HT-29, 72 h); 100 to 250 nM in data set [2] (Homo sapiens, HCT-116, 72 h); ≤ 100 nM in data set [3] (Homo sapiens, HT-29, 2 h).

Regarding `Cc1cnc(NC2CCOCC2)nc1-n1cnc(C(=O)NC(c2cccc(Cl)c2)C(C)O)c1` (centres unmarked) [Example 252, N-(1-(3-chlorophenyl)-2-hydroxypropyl)-1-(5-methyl-2-((tetrahydro-2H-pyran-4-yl)amino)-pyrimidin-4-yl)-1H-imidazole-4-carboxamide], the IC50 is 250 to 500 nM in data set [2] (72 h) and 100 to 250 nM in data set [3].

As for “N-((1s,3s)-1-(3- chlorophenyl)-3- hydroxycyclo- butyl)- 1-(5-methyl-2- ((tetrahydro-2H-4- yl)amino)pyrimi- din-4-yl)-1H- imidazole-4- carboxamide [Example 245]”, the IC50 in data set [3] was 250 to 500 nM.

On to “1-(2- (benzo[d][1,3]diox- ol-5-ylamino)-5- methylpyrimidin-4- yl)-N-(1-(4- fluorophenyl)-2- hydroxyethyl)-1H- pyrrole-3- carboxamide [Example 172]”, for which the IC50 in data set [2] (72 h) fell in the range of 250 to 500 nM; in data set [3] it was 100 to 250 nM.

For the compound `Cc1cnc(NC2CCOCC2)nc1-n1cnc(C(=O)NC(CN)c2ccc(Cl)s2)c1` (single isomer, unassigned; enantiomer #2) [Example 291, N-(2-amino-1-(5-chlorothiophen-2-yl)ethyl)-1-(5-methyl-2-((tetrahydro-2H-pyran-4-yl)amino)pyrimidin-4-yl)-1H-imidazole-4-carboxamide (enantiomer #2)], the IC50 in data set [1] (72 h) fell in the range of 250 to 500 nM; in data set [2] (72 h), 500 to 2500 nM; in data set [3], 250 to 500 nM.
